In test [1] the target is T1, AppA (Cereibacter sphaeroides, UniProt Q53119).
T1 sequence (Q53119 1-450): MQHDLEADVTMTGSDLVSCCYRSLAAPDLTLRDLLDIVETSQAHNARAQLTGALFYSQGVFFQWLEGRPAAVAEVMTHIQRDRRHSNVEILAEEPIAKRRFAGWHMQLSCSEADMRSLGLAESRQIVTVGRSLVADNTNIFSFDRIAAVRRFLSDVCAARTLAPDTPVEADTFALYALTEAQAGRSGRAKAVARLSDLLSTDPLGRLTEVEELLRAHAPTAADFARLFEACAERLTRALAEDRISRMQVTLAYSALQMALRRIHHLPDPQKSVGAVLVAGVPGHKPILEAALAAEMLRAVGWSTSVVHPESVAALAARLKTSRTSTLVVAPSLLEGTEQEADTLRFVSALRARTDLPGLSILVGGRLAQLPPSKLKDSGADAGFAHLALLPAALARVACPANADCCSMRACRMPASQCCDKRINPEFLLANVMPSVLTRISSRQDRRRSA
The experiment in a line: co-purification, flavin absorption spectrum. It is filed as binding. Particulars: BLUF domain cofactor as purified.

The target of test [2] is T1, AppA. The experiment in a line: biochemical.

The values that follow come from paper PMC3760249 (mBio, 2013).

By Kd is commonly meant a measure of binding affinity in units of concentration. Lower therefore signals higher affinity.

With `Cc1cc2nc3c(=O)[nH]c(=O)nc-3n(C[C@H](O)[C@H](O)[C@H](O)COP(=O)(O)OP(=O)(O)OC[C@H]3O[C@@H](n4cnc5c(N)ncnc54)[C@H](O)[C@@H]3O)c2cc1C` [flavin adenine dinucleotide], the “co-purification, flavin absorption spectrum” value at AppA [1] is on record as “it does contain flavin adenine dinucleotide (FAD) as the BLUF domain cofactor”. For the compound `C=CC1=C(C)C2=Cc3c(C=C)c(C)c4[n]3[Fe+][n]3c(c(C)c(CCC(=O)O)c3=CC3=NC(=C4)C(C)=C3CCC(=O)O)=CC1=N2` [heme], at AppA [2], the dissociation constant (Kd) stood at 1250 ± 440 nM.
